Data: ChEMBL document CHEMBL1133561, “A novel class of potent 3-isoxazolol GABA(A) antagonists: design, synthesis, and pharmacology” (J Med Chem, 2000)

Assays:
[1] = target: GABA-A receptor; anion channel; experiment: In vitro inhibition of [3H]muscimol to rat brain synaptic membranes; format: cell membranes, Membrane
[2] = target: GABA-A receptor; anion channel; experiment: Inhibition of Gamma-aminobutyric acid A (GABA-A) receptor in vitro by whole-cell patch-clamp recording in cultured cerebral cortical neurones; format: functional, Rattus norvegicus
[3] = target: GABA-A receptor; anion channel; experiment: Inhibition against Gamma-aminobutyric acid A (GABA-A) receptor; format: protein-complex assay, Rattus norvegicus

| Compound | Ki [1] | IC50 [2] | IC50 [3] |
| --- | --- | --- | --- |
| Oc1noc(C2CCNCC2)c1CCc1ccc2ccccc2c1 | 0.49 µM |  |  |
| CCc1c(O)noc1C1CCNCC1 | 6.3 µM |  |  |
| Oc1noc(C2CCNCC2)c1Cc1ccccc1 | 3.8 µM | 4 µM |  |
| Cc1c(O)noc1C1CCNCC1 | 10 µM |  |  |
| Oc1noc(C2CCNCC2)c1Cc1ccc2ccccc2c1 | 0.049 µM |  |  |
| Oc1noc(C2CCNCC2)c1Cc1c2ccccc2cc2ccccc12 | 5.9 µM |  |  |
| Cc1c(O)noc1CN |  |  | > 100 µM |
